Activity calls are given as the source filed them. The rule behind the calls is not given here.
What was measured:
Rattus norvegicus [1] = test: Toxicity against Fischer-344 rat up to 0.1 mmol/kg, ip; type: organism-based; conditions: in vivo
[2] = test system: Radical scavenging activity; test: Antioxidant activity assessed as DPPH radical scavenging activity at 100 uM after 20 mins by spectrophotometric analysis; type: functional
[3] = test system: Radical scavenging activity; test: Antioxidant activity assessed as DPPH radical scavenging activity at 100 uM after 60 mins by spectrophotometric analysis; type: functional
[4] = Inhibition of soybean LOX using sodium linoleate as substrate by spectrophotometric analysis; parameters: species or system Glycine max
[5] = Antioxidant activity assessed as inhibition of AAPH-induced linoleic acid lipid peroxidation at 100 uM by spectrophotometric analysis; type: functional
[6] = Cytotoxicity against human 1BR3 cells assessed as cell viability at 10 uM after 24 hrs by MTT assay; type: cell-based; conditions: read-out: Activity
Rattus norvegicus [7] = test: Antiinflammatory activity in Fischer-344 rat assessed as inhibition of carrageenan-induced paw edema at 0.01 mmol/kg, ip after 3.5 hrs relative to control; type: functional; conditions: Fischer-344, ip
[8] = Cytotoxicity against human 1BR3 cells assessed as cell viability at 1 uM after 24 hrs by MTT assay; type: cell-based; conditions: read-out: Activity
[9] = Cytotoxicity against human 1BR3 cells assessed as cell viability at 50 uM after 24 hrs by MTT assay; type: cell-based; conditions: read-out: Activity
[10] = Cytotoxicity against human 1BR3 cells assessed as cell viability at 20 uM after 24 hrs by MTT assay; type: cell-based; conditions: read-out: Activity
[11] = Cytotoxicity against human 1BR3 cells assessed as cell viability at 100 uM after 24 hrs by MTT assay; type: cell-based; conditions: read-out: Activity
Glycine max = test: Inhibition of soybean LOX using sodium linoleate as substrate at 100 uM by spectrophotometric analysis

Row | SMILES | Activity (Rattus norvegicus [1]) | Activity [2] | Activity [3] | IC50 [4] | inhibition [5] | viability at 24 h, 10 µM [6] [%] | inhibition in vivo at 10 µmol/kg (Rattus norvegicus [7]) [%] | viability at 24 h, 1 µM [8] [%] | IC50 ([4]; read-out: IC50) [µM] | viability at 24 h, 50 µM [9] [%] | viability at 24 h, 20 µM [10] [%] | viability at 24 h, 100 µM [11] [%] | inhibition (Glycine max) [%]
1 | COc1c2occc2c(/C=C/C(=O)OC(C)(C)C)c2ccc(=O)oc12 | Non-toxic | 3% | 3% | Not Active | 89% | – | – | – | – | – | – | – | –
2 | Cc1oc2c(C)c3oc(=O)cc(C)c3cc2c1/C=C/C(=O)OC(C)(C)C | Non-toxic | 11% | 11% | – | 80% | 55.6 | 46 | 67.9 | 9.4 | 34.6 | 37 | 22.2 | –
3 | COc1c2ccoc2c(Br)c2oc(=O)ccc12 | – | 7% | 7% | – | 83% | – | – | – | 90 | – | – | – | –
4 | O=c1ccc2c(Br)c3ccoc3c(O)c2o1 | – | 33% | 43% | – | 83% | – | – | – | 50 | – | – | – | –
5 | COc1ccc2c(c1)c(CC(=O)O)c(C)n2C(=O)c1ccc(Cl)cc1 [INDOMETHACIN] | Non-toxic | – | – | – | – | – | 47 | – | – | – | – | – | –
6 | CC(=O)c1c(C)oc2c(C)c3oc(=O)cc(C)c3cc12 | – | 14% | 14% | – | 67% | – | – | – | 79 | – | – | – | –
7 | Cc1cc2cc3c(C)cc(=O)oc3c(C)c2o1 [TRIOXSALEN] | – | inactive | inactive | – | inactive | 96.7 | – | 107 | – | 92.2 | 95.2 | 95.2 | 40
8 | CC(Cc1ccc(O)c(O)c1)C(C)Cc1ccc(O)c(O)c1 (stereo unspecified) | – | 81% | 83% | – | – | – | – | – | – | – | – | – | –
9 | COc1c2occc2c(-c2ccc(/C=C/C(=O)OC(C)(C)C)cc2)c2ccc(=O)oc12 | Non-toxic | 15% | 18% | – | 72% | 74.1 | 26.2 | 98.8 | 7.5 | 66.3 | 67.9 | 46.3 | –
10 | COc1c2ccoc2c(-c2ccc(C(=O)O)cc2)c2oc(=O)ccc12 | Non-toxic | 22% | 19% | – | 66% | – | – | – | 60 | – | – | – | –
11 | COc1c2occc2c(/C=C/C(=O)OCc2cccc(Oc3ccccc3)c2)c2ccc(=O)oc12 | Non-toxic | 7% | 9% | – | 89% | – | – | – | 55 | – | – | – | –
12 | COc1c2occc2c(C(C)=O)c2ccc(=O)oc12 | – | 8% | 8% | – | 85% | – | – | – | 100 | – | – | – | –
13 | Cc1oc2c(C)c3oc(=O)cc(C)c3cc2c1Br | – | inactive | 100% | Not Active | 35% | – | – | – | – | – | – | – | –
14 | COc1c2occc2c(Br)c2ccc(=O)oc12 | – | 8% | 8% | – | 62% | – | – | – | 40 | – | – | – | –
15 | O=c1ccc2cc3ccoc3c(O)c2o1 [XANTHOTOXOL] | – | 25% | 22% | – | 5% | – | – | – | 89 | – | – | – | –
16 | Cc1c(C)c2c(c(C)c1O)CCC(C)(C(=O)O)O2 (stereo unspecified) | – | – | – | – | 63% | – | – | – | – | – | – | – | –
17 | COc1c2occc2c(-c2ccc(/C=C/C(=O)O)cc2)c2ccc(=O)oc12 | Non-toxic | 41% | 44% | – | 12% | – | – | – | 62 | – | – | – | –
18 | Cc1oc2c(C)c3oc(=O)cc(C)c3cc2c1-c1ccc(C(=O)O)cc1 | Non-toxic | inactive | inactive | Not Active | 80% | – | – | – | – | – | – | – | –

Row | SMILES | Activity (Rattus norvegicus [1]) | Activity [2] | Activity [3] | IC50 [4] | inhibition [5] | viability at 24 h, 10 µM [6] [%] | inhibition in vivo at 10 µmol/kg (Rattus norvegicus [7]) [%] | viability at 24 h, 1 µM [8] [%] | IC50 ([4]; read-out: IC50) [µM] | viability at 24 h, 50 µM [9] [%] | viability at 24 h, 20 µM [10] [%] | viability at 24 h, 100 µM [11] [%] | inhibition (Glycine max) [%]
19 | CCOC(=O)/C=C/c1c2occc2c(OC)c2ccc(=O)oc12 | Non-toxic | inactive | inactive | Not Active | 8% | – | – | – | – | – | – | – | –
20 | CCOC(=O)/C=C/c1c2ccoc2c(OC)c2oc(=O)ccc12 | Non-toxic | 5% | 6% | – | 83% | – | – | – | 75 | – | – | – | –
21 | COc1c2occc2cc2ccc(=O)oc12 [METHOXSALEN] | – | 16% | 16% | – | 5% | 98.1 | – | 101 | 50 | 92 | 96.7 | 89.6 | –
22 | Cc1oc2c(C)c3oc(=O)cc(C)c3cc2c1-c1ccc(/C=C/C(=O)O)cc1 | Non-toxic | inactive | inactive | – | 84% | – | – | – | – | – | – | – | 13
23 | CCCCOC(=O)/C=C/c1c2ccoc2c(OC)c2oc(=O)ccc12 | Non-toxic | 5% | 7% | – | 79% | 99.3 | 57 | 96.7 | 6 | 98.9 | 99.6 | 90.3 | –
24 | Cc1oc2c(C)c3oc(=O)cc(C)c3cc2c1/C=C/C(=O)O | Non-toxic | 11% | 11% | – | 73% | – | – | – | – | – | – | – | 9
25 | COc1c2ccoc2c(/C=C/C(=O)OC(C)(C)C)c2oc(=O)ccc12 | Non-toxic | inactive | inactive | Not Active | 79% | – | – | – | – | – | – | – | –
26 | COc1c2ccoc2cc2oc(=O)ccc12 [BERGAPTEN] | – | 14% | 14% | Not Active | 49% | 102 | – | 105 | – | 91.7 | 99.4 | 88.9 | –
27 | CCOC(=O)/C=C/c1c(C)oc2c(C)c3oc(=O)cc(C)c3cc12 | Non-toxic | 8% | 60% | Not Active | 77% | – | – | – | – | – | – | – | –
28 | O=c1ccc2c(O)c3ccoc3c(Br)c2o1 | – | 20% | 56% | – | 81% | 92.8 | – | 97 | 30.5 | 91.6 | 95.2 | 91 | –
29 | COc1c2occc2c(-c2ccc(C(=O)O)cc2)c2ccc(=O)oc12 | Non-toxic | 11% | 15% | Not Active | 100% | – | – | – | – | – | – | – | –
30 | COc1c2ccoc2c(/C=C/C(=O)O)c2oc(=O)ccc12 | Non-toxic | 14% | 14% | – | 55% | – | – | – | 83 | – | – | – | –
31 | COc1c2ccoc2c(-c2ccc(/C=C/C(=O)O)cc2)c2oc(=O)ccc12 | Non-toxic | 22% | 28% | – | 55% | 55.6 | – | 65.6 | 24 | 18.5 | 24.7 | 13.3 | –
32 | Cc1oc2c(C)c3oc(=O)cc(C)c3cc2c1-c1ccc(/C=C/C(=O)OC(C)(C)C)cc1 | Non-toxic | inactive | inactive | – | 41% | – | – | – | – | – | – | – | 33
33 | COc1c2occc2c(/C=C/C(=O)O)c2ccc(=O)oc12 | Non-toxic | 7% | 7% | – | 62% | – | – | – | 50 | – | – | – | –
34 | COc1c2ccoc2c(-c2ccc(/C=C/C(=O)OC(C)(C)C)cc2)c2oc(=O)ccc12 | Non-toxic | 8% | 12% | – | 77% | – | – | – | 100 | – | – | – | –
35 | O=c1ccc2c(O)c3ccoc3cc2o1 [BERGAPTOL] | – | 34% | 36% | – | 95% | – | – | – | 41.5 | – | – | – | –
